Test results taken from patent US10722496B2, “2-iminobiotin for use in the treatment of brain cell injury” (Neurophyxia B.V., priority 2015, dated 2020).

Key:
akt = experiment: Western blotting, akt phosphorylation; format: cell-based, human
Protocol: In vitro hypoxia was induced in the cell cultures by using our recently described system with minor modifications (Huang et al., 2013b; Weber et al., 2015; Zitta et al., 2010). Enzyme stock solutions (100×) of catalase and glucose oxidase (both from Sigma-Aldrich) were prepared in cell culture medium (DMEM/F12, 1% FCS; final concentration: 120 U/ml and 2 U/ml respectively; Sigma-Aldrich) leading to a decrease of partial pressure of oxygen (pO2) below 10 mmHg within 5 minutes. Hypoxic conditions were confirmed by using a tissue oxygen pressure monitor (LICOX® CMP Oxygen Catheter; Integra, Plainsboro, USA). After 7 hours of hypoxia, the cells were washed twice with PBS (PAA) and fresh normoxic medium supplemented with solvent (citrate buffer 1%) or 2-IB (10, 30, 50, 100 and 300 ng/mL) was added to the cells. […]
Protein extraction was performed using RIPA buffer containing 150 mM sodium chloride, 1% NP-40, 1% sodium deoxycholate, 0.1% sodium dodecyl sulfate (SDS) and 50 mM Tris-HCl buffer (pH 7.6; all from Sigma-Aldrich) or alternatively M-PER buffer (Mammalian Protein Extraction Reagent; Pierce, Ill., USA). Protein concentrations were determined with Roti®-Quant assays (Carl Roth) and samples were stored at −20° C. until use. […] Images were taken and densitometrically analyzed with the software ImageJ (v1.41o, NIH).

[1] = Toxicokinetics, repeated i.v. pulse infusions to adult rats; format: in vivo, rat; conditions: for mean AUC 0-4-hour: 6.6 mg/kg per 15-minute i.v. pulse, first and last pulse
Protocol: The toxicokinetics of 2-IB was studied over a 96-hour period by i.v. pulse infusions to adult rats. The purpose of this study was to generate toxicokinetic parameters (Cmax, tmax, AUC, t1/2) from 2-IB plasma concentrations in male and female rats after repeated i.v. infusion.
Group 1 received vehicle only. Systemic exposure was monitored on day 0 and day 4. Blood sampling was conducted at 15 minutes and 0.5, 1 and 4 hours after the first infusion, and 15 minutes and 0.5, 1, 4, 8 and 24 hours following the last dose.

IMR-32 cells = experiment: LDH cytotoxicity assay, hypoxia-induced cell damage; format: cell-based, human; conditions: 10 ng/ml 2-IB, 17 hours after hypoxia

N=C1N[C@H]2[C@H](CS[C@H]2CCCCC(=O)O)N1 [2-IB, 2-iminobiotin]
phospho akt/akt (akt; hypoxia plus 30 ng/ml 2-IB): 0.60±0.33
phospho akt/akt (akt; normoxia plus 30 ng/ml 2-IB): 0.78±0.54
mean AUC 0-4-hour ([1]; 1st of four values printed for male and female rats): 2310 ng·h/mL
mean AUC 0-4-hour ([1]; 2nd of four values printed for male and female rats): 2530 ng·h/mL
mean AUC 0-4-hour ([1]; 3rd of four values printed for male and female rats): 1750 ng·h/mL
mean AUC 0-4-hour ([1]; 4th of four values printed for male and female rats): 1950 ng·h/mL
overall mean AUC 0-4-hour ([1]; 6.6 mg/kg per pulse, across sexes and first and last pulses): about 2135 ng·h/mL
AUC expected ([1]; rat, 3.3 mg/kg dose level, assuming linear PK): about 1068 ng·h/mL
LDH/total LDH (IMR-32 cells; hypoxia): 0.15±0.03
LDH/total LDH (IMR-32 cells; normoxia): 0.09±0.02
